Laboratory results as given in US10604554B2, “Double-acylated GLP-1 derivatives” (Novo Nordisk A/S, priority 2012, dated 2020).
pEC50, pIC50: −log10 of the molar value. Numbered stars: 1 amine (or outer) side, 2 acyl side, 3 side chain; on linkers, the order of the positions; unused ones are H or OH. Square brackets hold non-standard residues; d marks the D form. Side chains are listed from the residue outwards. Peptide text beside a SMILES is read from it. * marks the point of attachment. Undecanoyl(11-OPh(4-COOH)) = O=C(O)c1ccc(OCCCCCCCCCCC(=O)*)cc1; γGlu = O=C(O)[C@H](CCC(=O)[*:2])N[*:1]; εLys = N[C@@H](CCCCN[*:1])C(=O)[*:2]; Aib = CC(C)(N)C(=O)O

How the values were obtained:
human GLP-1 receptor [1] = target: T1, human GLP-1 receptor (Homo sapiens, UniProt P43220); experiment: In vitro potency (CRE luciferase; whole cells); format: cell-based; set-up: EC50/pM (ratio 1% HSA/0% HSA): unit not given here; details: for pEC50: BHK cells; for EC50/pM (ratio 1% HSA/0% HSA): ratio of EC50 at 1% HSA to EC50 at 0% HSA
T1 construct: expressed in transfected cells; host or cells: BHK cells, clone FCW467-12A/KZ10-1 (parent line BHKTS13), further transfected with CRE luciferase
T1 sequence (P43220 24-463): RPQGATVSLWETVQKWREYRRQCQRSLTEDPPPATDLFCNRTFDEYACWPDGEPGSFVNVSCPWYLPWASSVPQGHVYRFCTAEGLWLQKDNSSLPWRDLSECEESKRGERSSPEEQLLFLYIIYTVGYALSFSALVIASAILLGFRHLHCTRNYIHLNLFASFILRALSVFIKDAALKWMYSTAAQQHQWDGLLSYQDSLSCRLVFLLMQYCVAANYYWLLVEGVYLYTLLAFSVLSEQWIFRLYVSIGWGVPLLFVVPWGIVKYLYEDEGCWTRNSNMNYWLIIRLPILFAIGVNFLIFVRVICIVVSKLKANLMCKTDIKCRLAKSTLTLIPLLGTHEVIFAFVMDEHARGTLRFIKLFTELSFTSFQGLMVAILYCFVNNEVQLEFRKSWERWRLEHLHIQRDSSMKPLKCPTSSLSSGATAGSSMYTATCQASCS
In short: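 Stably transfected BHK cells carrying human GLP-1R and a CRE–firefly luciferase reporter, 5×10^3 cells/well in assay medium, run with 0% or 1% HSA in assay buffer.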

human GLP-1 receptor [2] = target: T1, human GLP-1 receptor; experiment: GLP-1 receptor binding (SPA, displacement of 125I-GLP-1)
In short: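 Membranes from a stably transfected hamster cell line, 5-10 ug protein/sample, with WGA SPA beads and [125I]-GLP-1(7-36)NH2 at 0.06 nM final. Incubated 120 min at 30 °C with shaking, then counted.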

[3] = Pharmacokinetic (PK) study in rat; details: male, Sprague Dawley, in vivo, iv, 6 nmol/kg
Procedure: The purpose of this Example is to investigate half-life in vivo in rat.
In vivo pharmacokinetic studies in rats were performed with the GLP-1 derivatives of a number of the Example compounds, as described in the following.
Male Sprague Dawley rats of same age with a body weight of approximately 400 g were obtained from Taconic (Denmark) and assigned to the treatments by simple randomisation on body weight, approximately 4 rats per group.
The GLP-1 derivatives (approximately 6 nmol/ml) were dissolved in 50 mM sodium phosphate, 145 mM sodium chloride, 0.05% tween 80, pH 7.4. Intravenous injections (1.0 ml/kg) of the compounds were given with a syringe in the tail vein of conscious rats. Blood was sampled from vena sublingualis for 5 days post dosing. Blood samples (200 μl) were collected in EDTA buffer (8 mM) and then centrifuged at 4° C. and 10000 G for 5 minutes. Plasma samples were kept at −20° C. until analyzed for plasma concentration of the respective GLP-1 compound.
The donor beads were coated with streptavidin, while acceptor beads were conjugated with a monoclonal antibody recognising a mid-/C-terminal epitope of the peptide. Another monoclonal antibody, specific for the N-terminus, was biotinylated. The three reactants were combined with the analyte and formed a two-sited immuno-complex. Illumination of the complex released singlet oxygen atoms from the donor beads, which were channeled into the acceptor beads and triggered chemiluminescence which was measured in an Envision plate reader. The amount of light was proportional to the concentration of the compound.
Plasma concentration-time profiles were analyzed using Phoenix WinNonLin ver. 6.2, Pharsight Inc., Mountain View, Calif., USA), and the half-life (T1/2) calculated using individual plasma concentration-time profiles from each animal.

[4] = In vitro potency (CRE luciferase) EC50 (1% HSA), 1% HSA
[5] = Receptor binding affinity IC50 (high HSA), 2.0% HSA (high albumin)
[6] = Receptor binding affinity IC50 (low HSA), 0.001% HSA (low albumin)

Question: With `CC[C@H](C)[C@H](NC(=O)[C@H](Cc1ccccc1)NC(=O)[C@H](CCC(=O)O)NC(=O)[C@H](CCCCNC(=O)[C@@H](N)CCCCNC(=O)[C@@H](N)CCCCNC(=O)CC[C@H](NC(=O)CCCCCCCCCCCOc1ccc(C(=O)O)cc1)C(=O)O)NC(=O)[C@H](C)NC(=O)[C@H](C)NC(=O)[C@H](CCC(N)=O)NC(=O)CNC(=O)[C@H](CCC(=O)O)NC(=O)[C@H](CC(C)C)NC(=O)[C@H](Cc1ccc(O)cc1)NC(=O)[C@H](CO)NC(=O)[C@H](CO)NC(=O)[C@@H](NC(=O)[C@H](CC(=O)O)NC(=O)[C@H](CO)NC(=O)[C@@H](NC(=O)[C@H](Cc1ccccc1)NC(=O)[C@@H](NC(=O)CNC(=O)[C@H](CCC(=O)O)NC(=O)C(C)(C)NC(=O)[C@@H](N)Cc1c[nH]cn1)[C@@H](C)O)[C@@H](C)O)C(C)C)C(=O)N[C@@H](C)C(=O)N[C@@H](Cc1c[nH]cn1)C(=O)N[C@@H](CC(C)C)C(=O)N[C@H](C(=O)N[C@@H](CCC(N)=O)C(=O)NCC(=O)N[C@@H](CCCNC(=N)N)C(=O)N[C@@H](CCCCNC(=O)[C@@H](N)CCCCNC(=O)[C@@H](N)CCCCNC(=O)CC[C@H](NC(=O)CCCCCCCCCCCOc1ccc(C(=O)O)cc1)C(=O)O)C(=O)O)C(C)C` [Example 4, N^ε26-[(2S)-2-amino-6-[[(2S)-2-amino-6-[[(4S)-4-carboxy-4-[12-(4-carboxyphenoxy)dodecanoylamino]butanoyl]amino]hexanoyl]amino]hexanoyl], N^ε37-[(2S)-2-amino-6-[[(2S)-2-amino-6-[[(4S)-4-carboxy-4-[12-(4-carboxyphenoxy)dodecanoylamino]butanoyl]amino]hexanoyl]amino]hexanoyl]-[Aib^8,His^31,Gln^34,Lys^37]-GLP-1-(7-37)-peptide] as the compound, how does the pEC50 (human GLP-1 receptor [1]; [4]) read?
Answer: 8.79

Question: And the “EC50/pM (ratio 1% HSA/0% HSA)” value (human GLP-1 receptor [1])?
Answer: 307

Question: What about the pIC50 (human GLP-1 receptor [2]; [5]) of the same compound?
Answer: 6.76

Question: What about the pIC50 (human GLP-1 receptor [2]; [6]) of the same compound?
Answer: 9.32

Question: What about the half-life [3] of the same compound?
Answer: 17 h

Question: What does the source list for `CC[C@H](C)[C@H](NC(=O)[C@H](Cc1ccccc1)NC(=O)[C@H](CCC(=O)O)NC(=O)[C@H](CCCCNC(=O)[C@@H](N)CCCCNC(=O)CNC(=O)[C@H](CO)NC(=O)[C@H](CO)NC(=O)CNC(=O)[C@H](CO)NC(=O)[C@H](CO)NC(=O)CC[C@H](NC(=O)CCCCCCCCCCCOc1ccc(C(=O)O)cc1)C(=O)O)NC(=O)[C@H](C)NC(=O)[C@H](C)NC(=O)[C@H](CCC(N)=O)NC(=O)CNC(=O)[C@H](CCC(=O)O)NC(=O)[C@H](CC(C)C)NC(=O)[C@H](Cc1ccc(O)cc1)NC(=O)[C@H](CO)NC(=O)[C@H](CO)NC(=O)[C@@H](NC(=O)[C@H](CC(=O)O)NC(=O)[C@H](CO)NC(=O)[C@@H](NC(=O)[C@H](Cc1ccccc1)NC(=O)[C@@H](NC(=O)CNC(=O)[C@H](CCC(=O)O)NC(=O)C(C)(C)NC(=O)[C@@H](N)Cc1c[nH]cn1)[C@@H](C)O)[C@@H](C)O)C(C)C)C(=O)N[C@@H](C)C(=O)N[C@@H](Cc1c[nH]c2ccccc12)C(=O)N[C@@H](CC(C)C)C(=O)N[C@H](C(=O)N[C@@H](CCCNC(=N)N)C(=O)NCC(=O)N[C@@H](CCCNC(=N)N)C(=O)N[C@@H](CCCCNC(=O)[C@@H](N)CCCCNC(=O)CNC(=O)[C@H](CO)NC(=O)[C@H](CO)NC(=O)CNC(=O)[C@H](CO)NC(=O)[C@H](CO)NC(=O)CC[C@H](NC(=O)CCCCCCCCCCCOc1ccc(C(=O)O)cc1)C(=O)O)C(=O)O)C(C)C` [Example 23]?
Answer: pEC50 (human GLP-1 receptor [1]; [4]): 9.81; pIC50 (human GLP-1 receptor [2]; [5]): 6.99; half-life [3]: 19 h

Question: With `CC[C@H](C)[C@H](NC(=O)[C@H](Cc1ccccc1)NC(=O)[C@H](CCC(=O)O)NC(=O)[C@H](CCCCNC(=O)[C@@H](N)CCCCNC(=O)CC[C@H](NC(=O)CC[C@H](NC(=O)CCCCCCCCCCOc1ccc(C(=O)O)cc1)C(=O)O)C(=O)O)NC(=O)[C@H](C)NC(=O)[C@H](C)NC(=O)[C@H](CCC(N)=O)NC(=O)CNC(=O)[C@H](CCC(=O)O)NC(=O)[C@H](CC(C)C)NC(=O)[C@H](Cc1ccc(O)cc1)NC(=O)[C@H](CO)NC(=O)[C@H](CO)NC(=O)[C@@H](NC(=O)[C@H](CC(=O)O)NC(=O)[C@H](CO)NC(=O)[C@@H](NC(=O)[C@H](Cc1ccccc1)NC(=O)[C@@H](NC(=O)CNC(=O)[C@H](CCC(=O)O)NC(=O)C(C)(C)NC(=O)[C@@H](N)Cc1c[nH]cn1)[C@@H](C)O)[C@@H](C)O)C(C)C)C(=O)N[C@@H](C)C(=O)N[C@@H](Cc1c[nH]c2ccccc12)C(=O)N[C@@H](CC(C)C)C(=O)N[C@H](C(=O)N[C@@H](CCCNC(=N)N)C(=O)NCC(=O)N[C@@H](CCCNC(=N)N)C(=O)N[C@@H](CCCCNC(=O)[C@@H](N)CCCCNC(=O)CC[C@H](NC(=O)CC[C@H](NC(=O)CCCCCCCCCCOc1ccc(C(=O)O)cc1)C(=O)O)C(=O)O)C(=O)O)C(C)C` [Example 40, N^ε26-[(2S)-2-amino-6-[[(4S)-4-carboxy-4-[[(4S)-4-carboxy-4-[11-(4-carboxyphenoxy)undecanoylamino]butanoyl]amino]butanoyl]amino]hexanoyl], N^ε37-[(2S)-2-amino-6-[[(4S)-4-carboxy-4-[[(4S)-4-carboxy-4-[11-(4-carboxyphenoxy)undecanoylamino]butanoyl]amino]butanoyl]amino]hexanoyl]-[Aib^8,Arg^34,Lys^37]-GLP-1-(7-37)-peptide] as the compound, how does the pEC50 (human GLP-1 receptor [1]; In vitro potency (CRE luciferase) EC50 (0% HSA), 0% HSA) read?
Answer: 11.59

Question: What about the pIC50 (human GLP-1 receptor [2]; [5]) of the same compound?
Answer: 6.71

Question: And the pIC50 (human GLP-1 receptor [2]; [6])?
Answer: 10.52

Question: With `CC[C@H](C)[C@H](NC(=O)[C@H](Cc1ccccc1)NC(=O)[C@H](CCC(=O)O)NC(=O)[C@H](CCCCNC(=O)[C@@H](N)CCCCNC(=O)CC[C@H](NC(=O)CC[C@H](NC(=O)CCCCCCCCCCOc1ccc(C(=O)O)cc1)C(=O)O)C(=O)O)NC(=O)[C@H](C)NC(=O)[C@H](C)NC(=O)[C@H](CCC(N)=O)NC(=O)[C@H](CCC(=O)O)NC(=O)[C@H](CCC(=O)O)NC(=O)[C@H](CC(C)C)NC(=O)[C@H](Cc1ccc(O)cc1)NC(=O)[C@H](CO)NC(=O)[C@H](CO)NC(=O)[C@@H](NC(=O)[C@H](CC(=O)O)NC(=O)[C@H](CO)NC(=O)[C@@H](NC(=O)[C@H](Cc1ccccc1)NC(=O)[C@@H](NC(=O)CNC(=O)[C@H](CCC(=O)O)NC(=O)C(C)(C)NC(=O)[C@@H](N)Cc1c[nH]cn1)[C@@H](C)O)[C@@H](C)O)C(C)C)C(=O)N[C@@H](CCC(=O)O)C(=O)N[C@@H](Cc1c[nH]c2ccccc12)C(=O)N[C@@H](CC(C)C)C(=O)N[C@H](C(=O)N[C@@H](CCCNC(=N)N)C(=O)NCC(=O)N[C@@H](CCCNC(=N)N)C(=O)N[C@@H](CCCCNC(=O)[C@@H](N)CCCCNC(=O)CC[C@H](NC(=O)CC[C@H](NC(=O)CCCCCCCCCCOc1ccc(C(=O)O)cc1)C(=O)O)C(=O)O)C(=O)O)C(C)C` [Example 41, N^ε26-[(2S)-2-amino-6-[[(4S)-4-carboxy-4-[[(4S)-4-carboxy-4-[11-(4-carboxyphenoxy)undecanoylamino]butanoyl]amino]butanoyl]amino]hexanoyl], N^ε37-[(2S)-2-amino-6-[[(4S)-4-carboxy-4-[[(4S)-4-carboxy-4-[11-(4-carboxyphenoxy)undecanoylamino]butanoyl]amino]butanoyl]amino]hexanoyl]-[Aib^8,Glu^22,Glu^30,Arg^34, Lys^37]-GLP-1-(7-37)-peptide] (H-H[Aib]EGTFTSDVSSYLEEQAAK([εLys-γGlu-γGlu-Undecanoyl(11-OPh(4-COOH))])EFIEWLVRGRK([εLys-γGlu-γGlu-Undecanoyl(11-OPh(4-COOH))])-OH; N-terminus and C-terminus assumed) as the compound, how does the “EC50/pM (ratio 1% HSA/0% HSA)” value (human GLP-1 receptor [1]) read?
Answer: 260

Question: And the pIC50 (human GLP-1 receptor [2]; [6])?
Answer: 10.52

Question: With `CC[C@H](C)[C@H](NC(=O)[C@H](Cc1ccccc1)NC(=O)[C@H](CCC(=O)O)NC(=O)[C@H](CCCCNC(=O)[C@@H](N)CCCCNC(=O)CC[C@H](NC(=O)CC[C@H](NC(=O)CCCCCCCCCCOc1ccc(C(=O)O)cc1)C(=O)O)C(=O)O)NC(=O)[C@H](C)NC(=O)[C@H](C)NC(=O)[C@H](CCC(N)=O)NC(=O)[C@H](CCC(=O)O)NC(=O)[C@H](CCC(=O)O)NC(=O)[C@H](CC(C)C)NC(=O)[C@H](Cc1ccc(O)cc1)NC(=O)[C@H](CO)NC(=O)[C@H](CO)NC(=O)[C@@H](NC(=O)[C@H](CC(=O)O)NC(=O)[C@H](CO)NC(=O)[C@@H](NC(=O)[C@H](Cc1ccccc1)NC(=O)[C@@H](NC(=O)CNC(=O)[C@H](CCC(=O)O)NC(=O)C(C)(C)NC(=O)[C@@H](N)Cc1c[nH]cn1)[C@@H](C)O)[C@@H](C)O)C(C)C)C(=O)N[C@@H](CCC(=O)O)C(=O)N[C@@H](Cc1c[nH]c2ccccc12)C(=O)N[C@@H](CC(C)C)C(=O)N[C@H](C(=O)N[C@@H](CCCNC(=N)N)C(=O)NCC(=O)N[C@@H](CCCNC(=N)N)C(=O)N[C@@H](CCCCNC(=O)[C@@H](N)CCCCNC(=O)CC[C@H](NC(=O)CC[C@H](NC(=O)CCCCCCCCCCOc1ccc(C(=O)O)cc1)C(=O)O)C(=O)O)C(=O)N[C@@H](CCC(=O)O)C(=O)O)C(C)C` [Example 42, N^ε26-[(2S)-2-amino-6-[[(4S)-4-carboxy-4-[[(4S)-4-carboxy-4-[11-(4-carboxyphenoxy)undecanoylamino]butanoyl]amino]butanoyl]amino]hexanoyl], N^ε37-[(2S)-2-amino-6-[[(4S)-4-carboxy-4-[[(4S)-4-carboxy-4-[11-(4-carboxyphenoxy)undecanoylamino]butanoyl]amino]butanoyl]amino]hexanoyl]-[Aib^8,Glu^22,Glu^30,Arg^34, Lys^37]-GLP-1-(7-37)-peptidyl-Glu] (H-H[Aib]EGTFTSDVSSYLEEQAAK([εLys-γGlu-γGlu-Undecanoyl(11-OPh(4-COOH))])EFIEWLVRGRK([εLys-γGlu-γGlu-Undecanoyl(11-OPh(4-COOH))])E-OH; N-terminus and C-terminus assumed) as the compound, how does the “EC50/pM (ratio 1% HSA/0% HSA)” value (human GLP-1 receptor [1]) read?
Answer: 251

Question: And the pIC50 (human GLP-1 receptor [2]; [6])?
Answer: 10.70
